Patent publication US20240208992A1, “MACROCYCLES AS CFTR MODULATORS” (Idorsia Pharmaceuticals Ltd, priority 2021, published 2024)

Biological target: human F508del-CFTR (Homo sapiens, UniProt P13569, DEL508-508)
Test: F508del-CFTR cell surface expression (corrector activity), DiscoveRx ß-galactosidase complementation chemiluminescence assay in recombinant U2OS cell line;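 further: U2OS cells co-expressing ProLink-tagged F508del-CFTR and a membrane-anchored enzyme acceptor, where more surface CFTR restores β-galactosidase activity measured by chemiluminescence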
Settings: for EC50: EC50, F508del-CFTR cell surface expression, U2OS cells, 16h compound incubation, geomean values; for Emax: U2OS, in relation to Emax of corrector lumacaftor (=100%), arithmetic mean values

Sequence of human F508del-CFTR (P13569 with tags, fused parts or gaps DEL508-508): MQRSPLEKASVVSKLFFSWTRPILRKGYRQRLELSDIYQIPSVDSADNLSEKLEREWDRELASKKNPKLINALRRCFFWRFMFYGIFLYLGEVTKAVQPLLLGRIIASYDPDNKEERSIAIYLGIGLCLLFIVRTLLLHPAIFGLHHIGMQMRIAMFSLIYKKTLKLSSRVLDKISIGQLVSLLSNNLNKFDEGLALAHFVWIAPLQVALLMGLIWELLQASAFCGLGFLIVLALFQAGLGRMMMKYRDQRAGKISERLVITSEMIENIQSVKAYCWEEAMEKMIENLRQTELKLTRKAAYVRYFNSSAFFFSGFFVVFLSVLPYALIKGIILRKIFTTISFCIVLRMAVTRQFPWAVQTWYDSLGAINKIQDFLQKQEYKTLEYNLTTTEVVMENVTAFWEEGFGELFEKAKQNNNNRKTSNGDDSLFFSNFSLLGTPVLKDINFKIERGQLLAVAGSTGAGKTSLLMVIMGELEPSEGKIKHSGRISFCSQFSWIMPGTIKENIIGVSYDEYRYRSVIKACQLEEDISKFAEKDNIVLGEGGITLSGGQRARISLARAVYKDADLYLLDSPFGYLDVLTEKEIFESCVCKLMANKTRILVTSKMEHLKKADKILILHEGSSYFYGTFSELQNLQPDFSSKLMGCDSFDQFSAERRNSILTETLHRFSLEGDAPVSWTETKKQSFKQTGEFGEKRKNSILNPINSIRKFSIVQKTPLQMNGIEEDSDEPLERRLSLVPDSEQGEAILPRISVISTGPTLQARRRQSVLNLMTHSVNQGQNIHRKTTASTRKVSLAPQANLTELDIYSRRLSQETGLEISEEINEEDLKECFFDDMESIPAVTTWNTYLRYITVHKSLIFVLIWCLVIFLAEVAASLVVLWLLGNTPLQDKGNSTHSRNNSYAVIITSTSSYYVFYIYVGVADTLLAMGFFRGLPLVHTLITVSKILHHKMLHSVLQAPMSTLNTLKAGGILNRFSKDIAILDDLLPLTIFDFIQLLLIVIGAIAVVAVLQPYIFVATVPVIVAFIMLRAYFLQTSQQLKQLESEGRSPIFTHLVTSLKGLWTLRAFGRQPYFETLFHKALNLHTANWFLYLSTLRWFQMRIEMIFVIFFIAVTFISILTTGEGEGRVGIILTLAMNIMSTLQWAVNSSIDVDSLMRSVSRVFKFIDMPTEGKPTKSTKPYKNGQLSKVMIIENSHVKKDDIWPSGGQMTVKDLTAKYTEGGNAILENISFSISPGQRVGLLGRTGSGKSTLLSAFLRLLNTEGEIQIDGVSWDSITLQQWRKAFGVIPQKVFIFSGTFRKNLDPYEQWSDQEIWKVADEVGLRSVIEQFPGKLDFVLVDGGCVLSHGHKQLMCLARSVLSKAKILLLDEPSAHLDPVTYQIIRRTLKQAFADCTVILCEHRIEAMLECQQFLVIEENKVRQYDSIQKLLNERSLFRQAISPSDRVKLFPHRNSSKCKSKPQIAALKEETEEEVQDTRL

| Structure (SMILES) | EC50 [µM] | Emax [%] |
| --- | --- | --- |
| COc1cccc(CCNC(=O)[C@@H]2CC(=O)N(C)[C@@H](CC(C)C)C(=O)N(C)C3(CC3)C(=O)N[C@H](Cc3ccccc3)COc3ncc4ccccc4c3C(=O)N2)c1 [Example 555, (3′S,7′S,13′R)-13′-benzyl-7′-isobutyl-N-(3-methoxyphenethyl)-6′,9′-dimethyl-1′,5′,8′,11′-tetraoxo-2′,3′,4′,5′,6′,7′,8′,9′,11′,12′,13′,14′-dodecahydro-1′H-spiro[cyclopropane-1,10′-[1]oxa[4,7,10,14]tetraazacycloheptadecino[17,16-c]isoquinoline]-3′-carboxamide] | 0.219 | 309 |
| COc1nccc2c1C(=O)N[C@H](C(=O)NCCc1noc(C3CC3)n1)CC(=O)N(C)[C@@H](CC(C)C)C(=O)N(C)[C@@H](CC1CCC(F)(F)CC1)C(=O)N[C@H](Cc1ccccc1)CO2 [Example 557, (3R,6S,9S,13S)-3-benzyl-N-(2-(5-cyclopropyl-1,2,4-oxadiazol-3-yl)ethyl)-6-((4,4-difluorocyclohexyl)methyl)-9-isobutyl-16-methoxy-7,10-dimethyl-5,8,11,15-tetraoxo-2,3,4,5,6,7,8,9,10,11,12,13,14,15-tetradecahydropyrido[3,4-p][1]oxa[4,7,10,14]tetraazacycloheptadecine-13-carboxamide] | 0.594 | 253 |
| COc1nccc2c1C(=O)N[C@H](C(=O)NCCc1noc(C3CC3)n1)CC(=O)N(C)[C@@H](CC(C)C)C(=O)N(C)[C@H](CC1CCC(F)(F)CC1)C(=O)N[C@H](Cc1ccccc1)CO2 [Example 558, (3R,6R,9S,13S)-3-benzyl-N-(2-(5-cyclopropyl-1,2,4-oxadiazol-3-yl)ethyl)-6-((4,4-difluorocyclohexyl)methyl)-9-isobutyl-16-methoxy-7,10-dimethyl-5,8,11,15-tetraoxo-2,3,4,5,6,7,8,9,10,11,12,13,14,15-tetradecahydropyrido[3,4-p][1]oxa[4,7,10,14]tetraazacycloheptadecine-13-carboxamide] | 0.167 | 355 |
| Cc1cc2ccc3c(c2o1)C(=O)N[C@H](C(=O)NCCc1noc(C2CC2)n1)CC(=O)N(C)[C@@H](CC(C)C)C(=O)N(C)CC(=O)N[C@H](Cc1ccccc1)CO3 [Example 561, (8R,14S,18S)-8-benzyl-N-(2-(5-cyclopropyl-1,2,4-oxadiazol-3-yl)ethyl)-14-isobutyl-2,12,15-trimethyl-10,13,16,20-tetraoxo-7,8,9,10,11,12,13,14,15,16,17,18,19,20-tetradecahydrobenzofuro[7,6-p][1]oxa[4,7,10,14]tetraazacycloheptadecine-18-carboxamide] | 0.437 | 215 |
| Cc1cc2ccc3c(c2o1)C(=O)N[C@H](C(=O)NCCc1nc(C2CC2)no1)CC(=O)N(C)[C@@H](CC(C)C)C(=O)N(C)CC(=O)N[C@H](Cc1ccccc1)CO3 [Example 562, (8R,14S,18S)-8-benzyl-N-(2-(3-cyclopropyl-1,2,4-oxadiazol-5-yl)ethyl)-14-isobutyl-2,12,15-trimethyl-10,13,16,20-tetraoxo-7,8,9,10,11,12,13,14,15,16,17,18,19,20-tetradecahydrobenzofuro[7,6-p][1]oxa[4,7,10,14]tetraazacycloheptadecine-18-carboxamide] | 0.444 | 282 |
| CC(C)C[C@H]1C(=O)N2CCCC[C@@H]2C(=O)N[C@H](Cc2ccccc2)COc2cnc3cccc(F)c3c2C(=O)N[C@H](C(=O)NCCc2noc(C3CC3)n2)CC(=O)N1C [Example 563, (9S,13S,19aR,22R)-22-benzyl-N-(2-(5-cyclopropyl-1,2,4-oxadiazol-3-yl)ethyl)-6-fluoro-13-isobutyl-12-methyl-7,11,14,20-tetraoxo-7,8,9,10,11,12,13,14,17,18,19,19a,20,21,22,23-hexadecahydro-16H-pyrido[2′,11:6,7][1]oxa[4,7,10,14]tetraazacycloheptadecino[17,16-c]quinoline-9-carboxamide] | 0.125 | 330 |
| COc1nc(C)cc2c1C(=O)N[C@H](C(=O)NCCc1noc(C3CC3)n1)CC(=O)N(C)[C@@H](CC(C)C)C(=O)N1CCCC[C@@H]1C(=O)N[C@H](Cc1ccccc1)CO2 [Example 567, (7S,11S,17aR,20R)-20-benzyl-N-(2-(5-cyclopropyl-1,2,4-oxadiazol-3-yl)ethyl)-11-isobutyl-4-methoxy-2,10-dimethyl-5,9,12,18-tetraoxo-5,6,7,8,9,10,11,12,15,16,17,17a,18,19,20,21-hexadecahydro-14H-dipyrido[2,1-f:3′,4′-p][1]oxa[4,7,10,14]tetraazacycloheptadecine-7-carboxamide] | 0.384 | 307 |

Now from value to compound:

| EC50 [µM] | Emax [%] | Structure (SMILES) |
| --- | --- | --- |
| 0.327 | 322 | CC(C)C[C@H]1C(=O)N(C)C2(CC2)C(=O)N[C@H](Cc2ccccc2)COc2ncc3ccccc3c2C(=O)N[C@H](C(=O)NCCc2cc(C3CC3)no2)CC(=O)N1C [Example 556, (3′S,7′S,13′R)-13′-benzyl-N-(2-(3-cyclopropylisoxazol-5-yl)ethyl)-7′-isobutyl-6′,9′-dimethyl-1′,5′,8′,11′-tetraoxo-2′,3′,4′,5′,6′,7′,8′,9′,11′,12′,13′,14′-dodecahydro-1′H-spiro[cyclopropane-1,10′-[1]oxa[4,7,10,14]tetraazacycloheptadecino[17,16-c]isoquinoline]-3′-carboxamide] |
| 0.155 | 236 | CC(C)C[C@H]1C(=O)N2CCCC[C@@H]2C(=O)N[C@H](Cc2ccccc2)COc2cnc3ccccc3c2C(=O)N[C@H](C(=O)NCCc2cc(C(F)(F)F)no2)CC(=O)N1C [Example 559, (9S,13S,19aR,22R)-22-benzyl-13-isobutyl-12-methyl-7,11,14,20-tetraoxo-N-(2-(3-(trifluoromethyl)isoxazol-5-yl)ethyl)-7,8,9,10,11,12,13,14,17,18,19,19a,20,21,22,23-hexadecahydro-16H-pyrido[2′,1′:6,7][1]oxa[4,7,10,14]tetraazacycloheptadecino[17,16-c]quinoline-9-carboxamide] |
| 0.114 | 249 | CC(C)C[C@H]1C(=O)N2CCCC[C@@H]2C(=O)N[C@H](Cc2ccccc2)COc2cnc3ccc(F)cc3c2C(=O)N[C@H](C(=O)NCCc2cc(C(F)(F)F)no2)CC(=O)N1C [Example 560, (9S,13S,19aR,22R)-22-benzyl-5-fluoro-13-isobutyl-12-methyl-7,11,14,20-tetraoxo-N-(2-(3-(trifluoromethyl)isoxazol-5-yl)ethyl)-7,8,9,10,11,12,13,14,17,18,19,19a,20,21,22,23-hexadecahydro-16H-pyrido[2′,1′:6,7][1]oxa[4,7,10,14]tetraazacycloheptadecino[17,16-c]quinoline-9-carboxamide] |
| 0.049 | 298 | Cc1cc(CCNC(=O)[C@@H]2CC(=O)N(C)[C@@H](CC(C)C)C(=O)N(C)[C@H](COCc3ccccc3)C(=O)N[C@H](Cc3ccccc3)COc3cnc4ccccc4c3C(=O)N2)on1 [Example 564, (3S,7S,10R,13R)-13-benzyl-10-((benzyloxy)methyl)-7-isobutyl-6,9-dimethyl-N-(2-(3-methylisoxazol-5-yl)ethyl)-1,5,8,11-tetraoxo-1,2,3,4,5,6,7,8,9,10,11,12,13,14-tetradecahydro-[1]oxa[4,7,10,14]tetraazacycloheptadecino[17,16-c]quinoline-3-carboxamide] |
| 0.338 | 254 | COc1nc(C)cc2c1C(=O)N[C@H](C(=O)NCCc1cc(C3CC3)on1)CC(=O)N(C)[C@@H](CC(C)C)C(=O)N1CCCC[C@@H]1C(=O)N[C@H](Cc1ccccc1)CO2 [Example 565, (7S,11S,17aR,20R)-20-benzyl-N-(2-(5-cyclopropylisoxazol-3-yl)ethyl)-11-isobutyl-4-methoxy-2,10-dimethyl-5,9,12,18-tetraoxo-5,6,7,8,9,10,11,12,15,16,17,17a,18,19,20,21-hexadecahydro-14H-dipyrido[2,1-f:3′,4′-p][1]oxa[4,7,10,14]tetraazacycloheptadecine-7-carboxamide] |
| 0.703 | 278 | COCC[C@@H]1C(=O)N[C@H](Cc2ccccc2)COc2cnc3ccccc3c2C(=O)N[C@H](C(=O)NCCc2cc(C)no2)CC(=O)N(C)[C@@H](CC(C)C)C(=O)N1C [Example 566, (3S,7S,10R,13R)-13-benzyl-7-isobutyl-10-(2-methoxyethyl)-6,9-dimethyl-N-(2-(3-methylisoxazol-5-yl)ethyl)-1,5,8,11-tetraoxo-1,2,3,4,5,6,7,8,9,10,11,12,13,14-tetradecahydro-[1]oxa[4,7,10,14]tetraazacycloheptadecino[17,16-c]quinoline-3-carboxamide] |
| 0.391 | 238 | COc1nc(C)cc2c1C(=O)N[C@H](C(=O)NCCc1cc(C(F)(F)F)no1)CC(=O)N(C)[C@@H](CC(C)C)C(=O)N1CCCC[C@@H]1C(=O)N[C@H](Cc1ccccc1)CO2 [Example 568, (7S,11S,17aR,20R)-20-benzyl-11-isobutyl-4-methoxy-2,10-dimethyl-5,9,12,18-tetraoxo-N-(2-(3-(trifluoromethyl)isoxazol-5-yl)ethyl)-5,6,7,8,9,10,11,12,15,16,17,17a,18,19,20,21-hexadecahydro-14H-dipyrido[2,1-f:3′,4′-p][1]oxa[4,7,10,14]tetraazacycloheptadecine-7-carboxamide] |
| 0.374 | 323 | COc1nccc2c1C(=O)N[C@H](C(=O)NCCc1cc(C)no1)CC(=O)N(C)[C@@H](CC(C)C)C(=O)N1CCN(CC(C)C)C[C@@H]1C(=O)N[C@H](Cc1ccccc1)CO2 [Example 570, (7S,11S,20R,22aR)-20-benzyl-2,7-diisobutyl-14-methoxy-8-methyl-N-(2-(3-methylisoxazol-5-yl)ethyl)-6,9,13,22-tetraoxo-1,3,4,6,7,8,9,10,11,12,13,19,20,21,22,22a-hexadecahydro-2H-pyrazino[2,1-f]pyrido[3,4-p][1]oxa[4,7,10,14]tetraazacycloheptadecine-11-carboxamide] |
